From patent publication EP4509511A1, “SUBSTITUTED SPIRO-ISOXAZOLINYL LACTAMS, SALTS THEREOF AND THEIR USE AS HERBICIDALLY ACTIVE SUBSTANCES” (Bayer Aktiengesellschaft, priority 2023, dated 2025)

Experiments:
[1] = system: ECHCG; assay: Herbicidal pre-emergence action - Part I; format: in vivo, Echinochloa crus-galli; settings: visual grading after ca. 3 weeks vs untreated controls
Description: (§1) Seeds of mono- and dicotyledonous weed plants were sown in plastic pots (double sowings with one species of mono- and one species of dicotyledonous weed plants per pot), in sandy loam, and covered with soil. The compounds according to the invention, formulated in the form of wettable powders (WP) or as emulsifiable concentrates (EC), were applied to the surface of the covering soil as aqueous suspension or emulsion, with the addition of 0.5% of an additive, at an application rate of 600 1 of water per hectare (converted). Following treatment, the pots were placed in a greenhouse and kept under optimum growth conditions for the test plants. The visual grading of the damage to the test plants was carried out after ca. 3 weeks in comparison to untreated controls (herbicidaleffectinpercent(%):100%effect=plantshavediedoff,0%effect=ascontrolplants). [formula]
(§2) Tables A1 to A12, below, show the effects of selected compounds of the general formula (I) according to table 1 on various harmful plants and an application rate corresponding to 1280 g/ha or below obtained by the experimental procedure mentioned above. Table A1: pre-emergence activity at 1280g/ha against ABUTH in %

[2] = system: LOLRI; assay: Herbicidal pre-emergence action - Part I; format: in vivo, Lolium rigidum; settings: 1280 g/ha, visual grading after ca. 3 weeks vs untreated controls
Description: as §1, §2

[3] = system: MATIN; assay: Herbicidal pre-emergence action - Part I; format: in vivo, Matricaria inodora; settings: 1280 g/ha, visual grading after ca. 3 weeks vs untreated controls
Description: as §1, §2

[4] = system: SETVI; assay: Herbicidal pre-emergence action - Part I; format: in vivo, Setaria viridis; settings: visual grading after ca. 3 weeks vs untreated controls
Description: as §1, §2

[5] = system: STEME; assay: Herbicidal pre-emergence action - Part I; format: in vivo, Stellaria media; settings: visual grading after ca. 3 weeks vs untreated controls
Description: as §1, §2

[6] = system: POAAN; assay: Herbicidal pre-emergence action - Part I; format: in vivo, Poa annua; settings: visual grading after ca. 3 weeks vs untreated controls
Description: as §1, §2

[7] = system: AMARE; assay: Herbicidal pre-emergence action - Part I; format: in vivo, Amaranthus retroflexus; settings: visual grading after ca. 3 weeks vs untreated controls
Description: as §1, §2

[8] = system: KCHSC; assay: Herbicidal pre-emergence action - Part I; format: in vivo, Kochia scoparia; settings: Table A10a, 1280 g/ha, visual grading after ca. 3 weeks vs untreated controls
Description: as §1, §2

[9] = system: DIGSA; assay: Herbicidal pre-emergence action - Part I; format: in vivo, Digitaria sanguinalis; settings: visual grading after ca. 3 weeks vs untreated controls
Description: as §1, §2

[10] = system: ECHCG; assay: Herbicidal post-emergence action - Part I; format: in vivo, Echinochloa crus-galli; settings: one-leaf stage, rated visually after about 3 weeks vs untreated controls
Procedure: (§3) Seeds of mono- and dicotyledonous weed plants were placed in plastic pots in sandy loam soil (doubly sown with in each case one species of mono- or dicotyledonous weed plants per pot), covered with soil and cultivated in a greenhouse under controlled growth conditions. 2 to 3 weeks after sowing, the test plants were treated at the one-leaf stage. The compounds of the invention, formulated in the form of wettable powders (WP) or as emulsion concentrates (EC), were applied onto the green parts of the plants as aqueous suspension or emulsion with addition of 0.5% additive at a water application rate of 600 liters per hectare (converted). After the test plants had been kept in the greenhouse under optimum growth conditions for about 3 weeks, the activity of the preparations was rated visually in comparison to untreated controls. For example, 100% activity = the plants have died, 0% activity = like control plants. Tables B1 to B12, below, show the effects of selected compounds of the general formula (I) according to table 1 on various harmful plants and an application rate corresponding to 1280 g/ha or below obtained by the experimental procedure mentioned above. Table B1a: post-emergence activity at 1280g/ha against ABUTH in %

[11] = system: SETVI; assay: Herbicidal post-emergence action - Part I; format: in vivo, Setaria viridis; settings: 1280 g/ha, one-leaf stage, rated visually after about 3 weeks vs untreated controls
Procedure: as §3

[12] = system: POAAN; assay: Herbicidal post-emergence action - Part I; format: in vivo, Poa annua; settings: 1280 g/ha, one-leaf stage, rated visually after about 3 weeks vs untreated controls
Procedure: as §3

[13] = system: AMARE; assay: Herbicidal post-emergence action - Part I; format: in vivo, Amaranthus retroflexus; settings: 1280 g/ha, one-leaf stage, rated visually after about 3 weeks vs untreated controls
Procedure: as §3

[14] = system: KCHSC; assay: Herbicidal post-emergence action - Part I; format: in vivo, Kochia scoparia; settings: 1280 g/ha, one-leaf stage, rated visually after about 3 weeks vs untreated controls
Procedure: as §3

[15] = system: VERPE; assay: Herbicidal post-emergence action - Part I; format: in vivo, Veronica persica; settings: 1280 g/ha, one-leaf stage, rated visually after about 3 weeks vs untreated controls
Procedure: as §3

[16] = system: ABUTH; assay: Herbicidal post-emergence action - Part II; format: in vivo, Abutilon theophrasti
Description: (§4) Seeds of mono- and dicotyledonous weed plants and crop plants were sown, in plastic or organic planting pots, in sandy loam, covered with soil and grown in a greenhouse under controlled growth conditions. 2 to 3 weeks after sowing, the test plants were sprayed in the single-leaf stage. The compounds according to the invention, formulated in form of wettable powders (WP) or as emulsifiable concentrates (EC), were sprayed onto the green plant parts as aqueous suspension or emulsion, with the addition of 0.5% of an additive, at an application rate of 600 1 of water/ha (converted). The test plants were placed in the greenhouse for ca. 3 weeks under optimum growth conditions, and then the effect of the preparations was assessed visually in comparison with untreated controls (herbicidal effect in percent (%): 100% effect = plants have died off, 0% effect = as control plants). Tables E1 to E10 below show the effects of selected compounds of the general formula (I) according to table 1 on various harmful plants and an application rate corresponding to 320 g/ha or below obtained by the experimental procedure mentioned above. Table E1a: post-emergence activity at 5g/ha against ABUTH in %

[17] = system: AMARE; assay: Herbicidal post-emergence action - Part II; format: in vivo, Amaranthus retroflexus; settings: 20 g/ha; Table E2b
Description: as §4

[18] = system: MATIN; assay: Herbicidal post-emergence action - Part II; format: in vivo, Matricaria inodora; settings: 20 g/ha; Table E4b
Description: as §4

[19] = system: PHBPU; assay: Herbicidal post-emergence action - Part II; format: in vivo, Pharbitis purpurea; settings: 20 g/ha; Table E5b
Description: as §4

[20] = system: POLCO; assay: Herbicidal post-emergence action - Part II; format: in vivo, Polygonum convolvulus; settings: 20 g/ha; Table E6
Description: as §4

[21] = system: VERPE; assay: Herbicidal post-emergence action - Part II; format: in vivo, Veronica persica; settings: 20 g/ha; Table E8b
Description: as §4

[22] = system: VIOTR; assay: Herbicidal post-emergence action - Part II; format: in vivo, Viola tricolor
Description: as §4

[23] = system: ZEAMX; assay: Post-emergence effects on crop plants; format: in vivo, Zea mays; settings: 5 g/ha; Table F1a; crop plant
Description: as §4, with “F1” for “E1”, “F5” for “E10”, “crop” for “harmful”, “[…]:” for “E1a:”, “ZEAMX” for “ABUTH”

[24] = system: TRZAS; assay: Post-emergence effects on crop plants; format: in vivo, Triticum aestivum; settings: 5 g/ha; Table F2a; crop plant
Description: as §4, with “F1” for “E1”, “F5” for “E10”, “crop” for “harmful”, “[…]:” for “E1a:”, “ZEAMX” for “ABUTH”

[25] = system: STEME; assay: Herbicidal post-emergence action - Part I; format: in vivo, Stellaria media; settings: one-leaf stage, rated visually after about 3 weeks vs untreated controls
Procedure: as §3

Cc1ccsc1C1=NOC2(CCCN(Cc3cccc(F)c3F)C2=O)C1 (racemic) [Compound I-3, 7-(2,3-Difluorobenzyl)-3-(3-methyl-2-thienyl)-1-oxa-2,7-diazaspiro[4.5]-dec-2-en-6-one]
pre-emergence activity at 320g/ha against ECHCG in % ([1]; 320 g/ha): 100%
pre-emergence activity at 1280g/ha against ECHCG in % [1]: 100%
pre-emergence activity at 1280g/ha against LOLRI in % [2]: 100%
pre-emergence activity at 1280g/ha against MATIN in % [3]: 90%
pre-emergence activity at 320g/ha and against SETVI in % ([4]; 320 g/ha): 100%
pre-emergence activity at 1280g/ha and against SETVI in % [4]: 100%
pre-emergence activity at 320g/ha against STEME in % [5]: 90%
pre-emergence activity at 1280g/ha against STEME in % [5]: 90%
pre-emergence activity at 320g/ha and against POAAN in % [6]: 100%
pre-emergence activity at 1280g/ha and against POAAN in % [6]: 100%
pre-emergence activity at 1280g/ha against AMARE in % [7]: 90%
pre-emergence activity at 1280g/ha against KCHSC in % [8]: 90%
pre-emergence activity at 320g/ha against DIGSA in % ([9]; 320 g/ha): 90%
pre-emergence activity at 1280g/ha against DIGSA in % [9]: 100%
post-emergence activity at 320g/ha against ECHCG in % ([10]; 320 g/ha): 90%
post-emergence activity at 1280g/ha against ECHCG in % [10]: 90%
post-emergence activity at 1280g/ha against SETVI in % [11]: 90%
post-emergence activity at 1280g/ha against POAAN in % [12]: 90%
post-emergence activity at 1280g/ha against AMARE in % [13]: 90%
post-emergence activity at 1280g/ha against KCHSC in % [14]: 90%
post-emergence activity at 1280g/ha against VERPE in % [15]: 90%

Cn1c(C(F)(F)F)cc(=O)n(-c2cc(C3=NOC4(CCNC4=O)C3)c(Cl)cc2F)c1=O (racemic) [Compound I-71]
post-emergence activity against ABUTH ([16]; 5 g/ha, Table E1a): 80%
post-emergence activity against ABUTH ([16]; 20 g/ha, Table E1b): 100%
post-emergence activity against AMARE [17]: 100%
post-emergence activity against MATIN [18]: 80%
post-emergence activity against PHBPU [19]: 80%
post-emergence activity against POLCO [20]: 80%
post-emergence activity against VERPE [21]: 80%
post-emergence activity against VIOTR ([22]; 5 g/ha, Table E9a): 80%
post-emergence activity against VIOTR ([22]; 20 g/ha, Table E9b): 80%
post-emergence activity against ZEAMX [23]: 20%
post-emergence activity against TRZAS [24]: 0%

O=C1N(Cc2c(F)cccc2F)CCC12CC(c1ccccc1F)=NO2 (racemic) [Compound I-27, 7-(2,6-Difluorobenzyl)-3-(2-fluorophenyl)-1-oxa-2,7-diazaspiro[4.4]non-2-en-6-one]
pre-emergence activity at 1280g/ha against ECHCG in % [1]: 100%
pre-emergence activity at 1280g/ha against MATIN in % [3]: 90%
pre-emergence activity at 1280g/ha and against SETVI in % [4]: 90%
pre-emergence activity at 320g/ha against STEME in % [5]: 90%
pre-emergence activity at 1280g/ha against STEME in % [5]: 90%
pre-emergence activity at 320g/ha and against POAAN in % [6]: 100%
pre-emergence activity at 1280g/ha and against POAAN in % [6]: 100%
pre-emergence activity at 320g/ha against AMARE in % ([7]; 320 g/ha): 90%
pre-emergence activity at 1280g/ha against AMARE in % [7]: 90%
pre-emergence activity at 1280g/ha against KCHSC in % [8]: 90%
pre-emergence activity at 1280g/ha against DIGSA in % [9]: 90%
post-emergence activity at 320g/ha against STEME in % ([25]; 320 g/ha): 90%
post-emergence activity at 1280g/ha against STEME in % ([25]; 1280 g/ha): 90%
post-emergence activity at 1280g/ha against AMARE in % [13]: 90%

Cc1ccccc1CN1CCCC2(CC(c3sccc3C)=NO2)C1=O (racemic) [Compound I-4, 7-(2-Methylbenzyl)-3-(3-methyl-2-thienyl)-1-oxa-2,7-diazaspiro[4.5]dec-2-en-6-one]
pre-emergence activity at 1280g/ha and against SETVI in % [4]: 90%
pre-emergence activity at 320g/ha and against POAAN in % [6]: 100%
pre-emergence activity at 1280g/ha and against POAAN in % [6]: 100%
post-emergence activity at 1280g/ha against ECHCG in % [10]: 90%
post-emergence activity at 1280g/ha against POAAN in % [12]: 90%
post-emergence activity at 1280g/ha against AMARE in % [13]: 90%
post-emergence activity at 1280g/ha against VERPE in % [15]: 90%

Cc1ccsc1C1=NOC2(CCN(Cc3ccccc3F)C2=O)C1 (racemic) [Compound I-17, 7-(2-Fluorobenzyl)-3-(3-methyl-2-thienyl)-1-oxa-2,7-diazaspiro[4.4]non-2-en-6-one]
pre-emergence activity at 1280g/ha against ECHCG in % [1]: 90%
pre-emergence activity at 1280g/ha against LOLRI in % [2]: 100%
pre-emergence activity at 1280g/ha against MATIN in % [3]: 90%
pre-emergence activity at 1280g/ha and against SETVI in % [4]: 100%
pre-emergence activity at 80g/ha against STEME in % ([5]; 80 g/ha): 90%
pre-emergence activity at 320g/ha against STEME in % [5]: 90%
pre-emergence activity at 1280g/ha against STEME in % [5]: 100%
pre-emergence activity at 1280g/ha and against POAAN in % [6]: 100%
pre-emergence activity at 1280g/ha against AMARE in % [7]: 90%
post-emergence activity at 1280g/ha against KCHSC in % [14]: 90%
